Literature values in patent publication US6355457B1, “Genes for the biosynthesis of epothilones” (Novartis AG, priority 1998, dated 2002).

Test system: human solid tumors
Conditions: in vivo

Row | Compound | activity against human solid tumors
1 | CC(=O)O[C@H]1C(=O)[C@@]2(C)[C@H]([C@H](OC(=O)c3ccccc3)[C@]3(O)C[C@H](OC(=O)[C@H](O)[C@@H](NC(=O)c4ccccc4)c4ccccc4)C(C)=C1C3(C)C)[C@]1(OC(C)=O)CO[C@@H]1C[C@@H]2O [Taxol] | significant activity against various human solid tumors
2 | CC(=O)O[C@@]12CO[C@@H]1C[C@H](O)[C@@]1(C)C(=O)[C@H](O)C3=C(C)[C@@H](OC(=O)[C@H](O)[C@@H](NC(=O)OC(C)(C)C)c4ccccc4)C[C@@](O)([C@@H](OC(=O)c4ccccc4)[C@H]21)C3(C)C [taxotere] | significant activity against various human solid tumors
